Assay [1] has as its system A/WSN/33 (H1N1) virus with NA H274Y resistance mutation. Type of assay: cell-based, Influenza A/WSN/33 (H1N1).
For assay [2], the system named is PR8. Briefly: microbe, parasite or virus in culture. It counts as cell-based, Influenza A/PR/8/34 (PR8) H1N1 virus.

Where two headings read alike, the source gives them in different places.

One may read the IC50 as the concentration that inhibits the measured activity by half. Consider TACTtactgacaGCC [LNA9], for which, in assay [1], the potency and efficacy entry is given as “picomolar activity”. The IC50 in assay [2] (read-out: IC50 after serial passages) amounted to 0.016 nM; in assay [2] (read-out: IC50 at start of passaging), 0.018 nM.
Consider `CCOC(=O)C1=C[C@@H](OC(CC)CC)[C@H](NC(C)=O)[C@@H](N)C1` [Oseltamivir], for which the IC50 in assay [1] came to 53000 nM; in assay [2] (Influenza A virus, PR8, read-out: IC50 after serial passages), 50000 nM; in assay [2] (Influenza A virus, PR8, read-out: starting IC50), 41 nM. In addition, in assay [2], the “increase of IC50” value is recorded as 1000 fold.
